Patent US8153557B2, “Agriculturally useful compositions” (priority 2006, dated 2012)

Columns and labels:
[1] = Precipitation of Cloquintocet-mexyl hydrate in emulsified concentrate (EW) of Example One; type: physicochemical; conditions: EW of Table E1: Aromatic 200 15.3, n-butyl lactate 15.3, ATLOX 4914 1.4, Cloquintocet-mexyl 4.2, ATLAS G-5000 2.2, water 61.6 weight percent
Protocol: The Following Items where Mix Together (See Table E1). [table] The Cloquintocet-mexyl was dissolved into a mixture of Aromatic 200 and n-butyl lactate. The emulsifiers were then mixed into the mixture. Finally, water was added and the mixture was turned into a emulsified concentrate (EW) by mechanical stirring. Precipitation of Cloquintocet-mexyl hydrate was not observed.

[2] = Precipitation of Cloquintocet-mexyl hydrate from A200, BL or A200+BL solutions after addition of water (Example Two); type: physicochemical; design: key to Cloquintocet-mexyl hydrate precipitation: “P” means that Cloquintocet-mexyl hydrate precipitated from the mixture.; “S” means that Cloquintocet-mexyl hydrate did not precipitated from the mixture; conditions: about 10 weight percent water added, 4° C.
Protocol: CQC was dissolved into A200, BL, or a mixture of A200+BL. Thereafter, about 10 weight percent water was added to each sample based on the weight of the sample (A200+BL+CQC). Each sample was prepared at 4° C.

CCCCCC(C)OC(=O)COc1ccc(Cl)c2cccnc12 (stereo not shown) [CQC, Cloquintocet-mexyl]
Precipitation of Cloquintocet-mexyl hydrate [1]: not observed | CQC content kept in solution when mixed with water ([2]; 50/50 mixture of A200 and BL): up to 14 weight percent | CQC content at which Cloquintocet-mexyl hydrate is kept in solution when mixed with water ([2]; A200(100%)): less than 7 weight percent | CQC content at which Cloquintocet-mexyl hydrate is kept in solution when mixed with water ([2]; BL(100%)): less than 7 weight percent | Cloquintocet-mexyl hydrate precipitation ([2]; CQC 3 wt %, BL 100%): S | Cloquintocet-mexyl hydrate precipitation ([2]; CQC 4 wt %, A200 100%): S | Cloquintocet-mexyl hydrate precipitation ([2]; CQC 5 wt %, BL 100%): S | Cloquintocet-mexyl hydrate precipitation ([2]; CQC 6 wt %, A200 100%): S | Cloquintocet-mexyl hydrate precipitation ([2]; CQC 7 wt %, BL 100%): P | Cloquintocet-mexyl hydrate precipitation ([2]; CQC 8 wt %, A200 100%): P | Cloquintocet-mexyl hydrate precipitation ([2]; CQC 9 wt %, BL 100%): P | Cloquintocet-mexyl hydrate precipitation ([2]; CQC 10 wt %, A200 100%): P | Cloquintocet-mexyl hydrate precipitation ([2]; CQC 11 wt %, BL 100%): P | Cloquintocet-mexyl hydrate precipitation ([2]; CQC 12 wt %, A200 (12%) + BL (88%)): P | Cloquintocet-mexyl hydrate precipitation ([2]; CQC 12 wt %, A200 (50%) + BL (50%)): S | Cloquintocet-mexyl hydrate precipitation ([2]; CQC 12 wt %, A200 (88%) + BL (12%)): P | Cloquintocet-mexyl hydrate precipitation ([2]; CQC 13 wt %, BL 100%): P | Cloquintocet-mexyl hydrate precipitation ([2]; CQC 14 wt %, A200 (12%) + BL (88%)): P | Cloquintocet-mexyl hydrate precipitation ([2]; CQC 14 wt %, A200 (50%) + BL (50%)): S | Cloquintocet-mexyl hydrate precipitation ([2]; CQC 14 wt %, A200 (88%) + BL (12%)): P | Cloquintocet-mexyl hydrate precipitation ([2]; CQC 15.5 wt %, A200 100%): P | Cloquintocet-mexyl hydrate precipitation ([2]; CQC 15.5 wt %, A200 (12%) + BL (88%)): P | Cloquintocet-mexyl hydrate precipitation ([2]; CQC 15.5 wt %, A200 (50%) + BL (50%)): P | Cloquintocet-mexyl hydrate precipitation ([2]; CQC 15.5 wt %, A200 (88%) + BL (12%)): P | Cloquintocet-mexyl hydrate precipitation ([2]; CQC 15.5 wt %, BL 100%): P
